Measurements published in ChEMBL document CHEMBL5465560, “Selectivity Literature for EUbOPEN Chemogenomic Library” (2024).

Assays:
[1] = molecular target: Tyrosine-protein kinase Fes/Fps (Homo sapiens) (UniProt P07332); test: Selectivity interaction (Kinase panel (DSF assay)) EUB0001559a FES
[2] = molecular target: Cyclin-dependent kinase 15 (Homo sapiens) (UniProt Q96Q40); test: Selectivity interaction (KinomeScan (DiscoverX)) EUB0001049a CDK15; settings: at 1 µM
[3] = molecular target: Proto-oncogene tyrosine-protein kinase receptor Ret (Homo sapiens, UniProt P07949); test: (§1) Selectivity interaction (KinomeScan (DiscoverX)) EUB0001619a RET; settings: at 1 µM
Sequence of Proto-oncogene tyrosine-protein kinase receptor Ret (P07949 whole entry): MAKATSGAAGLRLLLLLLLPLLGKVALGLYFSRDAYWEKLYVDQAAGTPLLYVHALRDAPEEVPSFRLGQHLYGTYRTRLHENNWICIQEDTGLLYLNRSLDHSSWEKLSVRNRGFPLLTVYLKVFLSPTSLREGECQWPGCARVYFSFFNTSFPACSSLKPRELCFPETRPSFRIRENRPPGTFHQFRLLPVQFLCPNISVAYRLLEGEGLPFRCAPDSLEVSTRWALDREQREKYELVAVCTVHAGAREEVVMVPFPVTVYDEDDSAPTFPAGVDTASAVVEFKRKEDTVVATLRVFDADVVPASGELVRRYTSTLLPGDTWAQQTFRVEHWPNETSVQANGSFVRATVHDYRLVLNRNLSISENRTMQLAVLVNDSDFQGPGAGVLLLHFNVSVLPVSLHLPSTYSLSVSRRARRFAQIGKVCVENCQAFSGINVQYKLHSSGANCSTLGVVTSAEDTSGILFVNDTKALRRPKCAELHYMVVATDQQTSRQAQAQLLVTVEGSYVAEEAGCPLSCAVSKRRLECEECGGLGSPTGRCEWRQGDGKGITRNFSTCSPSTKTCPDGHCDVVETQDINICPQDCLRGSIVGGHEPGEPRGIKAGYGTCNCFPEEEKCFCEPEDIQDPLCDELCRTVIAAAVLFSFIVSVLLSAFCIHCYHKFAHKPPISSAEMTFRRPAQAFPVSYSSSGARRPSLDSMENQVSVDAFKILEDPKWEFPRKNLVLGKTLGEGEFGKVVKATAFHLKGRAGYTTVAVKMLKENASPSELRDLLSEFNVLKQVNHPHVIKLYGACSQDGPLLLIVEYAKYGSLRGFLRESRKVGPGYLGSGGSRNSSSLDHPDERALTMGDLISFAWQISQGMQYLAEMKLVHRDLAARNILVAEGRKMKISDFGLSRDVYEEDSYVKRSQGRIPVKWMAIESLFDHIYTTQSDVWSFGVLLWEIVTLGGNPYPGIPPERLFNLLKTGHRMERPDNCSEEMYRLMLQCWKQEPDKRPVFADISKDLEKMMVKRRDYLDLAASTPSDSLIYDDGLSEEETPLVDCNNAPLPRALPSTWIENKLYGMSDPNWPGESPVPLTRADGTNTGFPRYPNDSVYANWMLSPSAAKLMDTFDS

[4] = tested on: Proto-oncogene tyrosine-protein kinase receptor Ret (Homo sapiens), P07949 [M918T]; test: as §1; settings: at 1 µM
Sequence of Proto-oncogene tyrosine-protein kinase receptor Ret (Homo sapiens), P07949 [M918T] (P07949 whole entry M918T): as the sequence (P07949 whole entry) above, with M918T counted along it

[5] = tested on: Proto-oncogene tyrosine-protein kinase receptor Ret (Homo sapiens), P07949 [V804M]; test: as §1; settings: at 1 µM
Sequence of Proto-oncogene tyrosine-protein kinase receptor Ret (Homo sapiens), P07949 [V804M] (P07949 whole entry V804M): as the sequence (P07949 whole entry) above, with V804M counted along it

[6] = tested on: Proto-oncogene tyrosine-protein kinase receptor Ret (Homo sapiens), P07949 [V804L]; test: as §1; settings: at 1 µM
Sequence of Proto-oncogene tyrosine-protein kinase receptor Ret (Homo sapiens), P07949 [V804L] (P07949 whole entry V804L): as the sequence (P07949 whole entry) above, with V804L counted along it

[7] = molecular target: T1, Cyclin-dependent kinase 11A (Homo sapiens) (UniProt Q9UQ88); test: Selectivity interaction (KinomeScan (DiscoverX)) EUB0000607a CDK11A; settings: at 10 µM
T1 sequence (whole entry): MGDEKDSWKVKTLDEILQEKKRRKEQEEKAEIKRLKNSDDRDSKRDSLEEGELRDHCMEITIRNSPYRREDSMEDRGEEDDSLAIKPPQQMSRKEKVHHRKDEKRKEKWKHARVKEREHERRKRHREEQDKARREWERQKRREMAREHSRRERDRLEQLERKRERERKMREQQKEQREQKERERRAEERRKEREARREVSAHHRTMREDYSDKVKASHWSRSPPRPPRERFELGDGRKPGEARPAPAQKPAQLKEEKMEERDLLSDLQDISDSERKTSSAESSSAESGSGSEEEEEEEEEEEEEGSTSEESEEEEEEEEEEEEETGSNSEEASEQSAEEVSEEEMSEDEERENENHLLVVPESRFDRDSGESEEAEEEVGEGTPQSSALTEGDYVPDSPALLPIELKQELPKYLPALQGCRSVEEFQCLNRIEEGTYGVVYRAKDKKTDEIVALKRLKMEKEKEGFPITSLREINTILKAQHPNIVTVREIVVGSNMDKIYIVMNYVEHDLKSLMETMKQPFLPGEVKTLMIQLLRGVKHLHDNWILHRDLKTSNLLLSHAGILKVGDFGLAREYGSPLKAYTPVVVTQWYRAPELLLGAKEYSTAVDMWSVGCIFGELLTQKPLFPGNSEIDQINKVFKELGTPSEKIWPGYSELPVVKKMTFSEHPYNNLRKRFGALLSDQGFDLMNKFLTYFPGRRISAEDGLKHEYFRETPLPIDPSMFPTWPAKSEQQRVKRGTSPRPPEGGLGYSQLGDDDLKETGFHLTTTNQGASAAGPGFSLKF

[8] = molecular target: T2, Ephrin type-B receptor 1 (Homo sapiens) (UniProt P54762); test: Selectivity interaction (KinomeScan (DiscoverX)) EUB0000655a EPHB1; settings: at 10 µM
T2 sequence (whole entry): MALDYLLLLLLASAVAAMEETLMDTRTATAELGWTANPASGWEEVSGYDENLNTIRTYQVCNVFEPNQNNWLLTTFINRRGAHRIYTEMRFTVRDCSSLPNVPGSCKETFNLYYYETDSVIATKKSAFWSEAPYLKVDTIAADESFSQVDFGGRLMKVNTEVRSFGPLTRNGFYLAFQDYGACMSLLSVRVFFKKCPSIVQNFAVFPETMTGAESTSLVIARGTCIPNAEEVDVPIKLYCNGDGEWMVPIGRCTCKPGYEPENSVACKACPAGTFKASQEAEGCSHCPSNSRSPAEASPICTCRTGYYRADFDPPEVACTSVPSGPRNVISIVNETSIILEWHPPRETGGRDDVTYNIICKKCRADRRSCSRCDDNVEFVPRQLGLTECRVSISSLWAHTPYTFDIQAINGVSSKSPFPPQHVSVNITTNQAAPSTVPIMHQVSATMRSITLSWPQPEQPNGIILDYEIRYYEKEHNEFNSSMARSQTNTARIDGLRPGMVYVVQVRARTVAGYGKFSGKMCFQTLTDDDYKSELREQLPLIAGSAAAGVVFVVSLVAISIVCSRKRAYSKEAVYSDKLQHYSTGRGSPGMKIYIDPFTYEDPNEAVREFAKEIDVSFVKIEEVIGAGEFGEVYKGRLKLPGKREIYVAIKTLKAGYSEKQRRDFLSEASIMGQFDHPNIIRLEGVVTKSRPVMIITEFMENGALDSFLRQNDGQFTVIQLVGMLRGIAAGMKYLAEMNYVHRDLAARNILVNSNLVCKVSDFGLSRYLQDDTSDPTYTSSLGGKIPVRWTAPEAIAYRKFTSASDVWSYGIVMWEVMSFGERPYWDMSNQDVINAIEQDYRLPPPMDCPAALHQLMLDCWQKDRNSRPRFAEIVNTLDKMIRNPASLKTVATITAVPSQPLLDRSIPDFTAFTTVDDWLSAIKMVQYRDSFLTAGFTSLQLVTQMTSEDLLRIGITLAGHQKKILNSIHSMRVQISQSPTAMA

[9] = tested on: Serine/threonine-protein kinase B-raf (Homo sapiens), P15056 [V600E]; settings: at 10 µM
Sequence of Serine/threonine-protein kinase B-raf (Homo sapiens), P15056 [V600E] (P15056 whole entry V600E): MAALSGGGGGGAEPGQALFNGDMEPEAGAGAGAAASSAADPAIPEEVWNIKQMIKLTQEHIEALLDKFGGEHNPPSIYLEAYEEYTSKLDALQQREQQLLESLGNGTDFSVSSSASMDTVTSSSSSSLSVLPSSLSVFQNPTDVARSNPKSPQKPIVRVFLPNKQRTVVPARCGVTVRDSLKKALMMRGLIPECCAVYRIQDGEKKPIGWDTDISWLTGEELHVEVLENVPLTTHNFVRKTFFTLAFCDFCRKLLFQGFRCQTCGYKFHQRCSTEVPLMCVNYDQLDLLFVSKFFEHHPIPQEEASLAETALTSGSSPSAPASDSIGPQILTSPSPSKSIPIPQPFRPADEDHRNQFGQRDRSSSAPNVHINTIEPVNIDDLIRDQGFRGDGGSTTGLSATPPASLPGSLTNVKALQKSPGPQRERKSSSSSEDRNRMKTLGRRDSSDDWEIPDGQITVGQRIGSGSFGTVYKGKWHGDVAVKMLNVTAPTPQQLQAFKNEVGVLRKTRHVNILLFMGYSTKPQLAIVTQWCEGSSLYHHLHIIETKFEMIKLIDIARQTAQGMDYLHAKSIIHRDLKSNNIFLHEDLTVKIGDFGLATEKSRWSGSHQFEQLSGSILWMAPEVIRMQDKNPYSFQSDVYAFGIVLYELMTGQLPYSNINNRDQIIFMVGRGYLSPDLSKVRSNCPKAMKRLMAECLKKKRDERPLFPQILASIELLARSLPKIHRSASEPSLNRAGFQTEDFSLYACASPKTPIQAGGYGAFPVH

[10] = molecular target: Cyclin-dependent kinase-like 1 (Homo sapiens) (UniProt Q00532); test: Selectivity interaction (Ambit KINOMEscan and KiNATiv profiling in Jurkat cells) EUB0000090b CDKL1; type: cell-based; settings: at 1 µM
Sequence of Cyclin-dependent kinase-like 1 (Homo sapiens) (Q00532 whole entry): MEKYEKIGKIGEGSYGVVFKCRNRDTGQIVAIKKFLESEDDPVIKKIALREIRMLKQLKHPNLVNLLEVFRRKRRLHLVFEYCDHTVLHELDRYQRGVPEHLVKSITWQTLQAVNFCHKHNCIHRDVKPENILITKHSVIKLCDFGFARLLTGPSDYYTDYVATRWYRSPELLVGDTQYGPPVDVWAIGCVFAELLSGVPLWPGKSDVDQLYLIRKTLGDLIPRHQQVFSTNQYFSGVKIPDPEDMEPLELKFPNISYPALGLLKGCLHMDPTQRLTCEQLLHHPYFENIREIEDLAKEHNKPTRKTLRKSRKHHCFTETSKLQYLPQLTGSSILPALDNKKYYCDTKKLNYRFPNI

Sequence of Cyclin-dependent kinase 15 (Homo sapiens) (Q96Q40 whole entry): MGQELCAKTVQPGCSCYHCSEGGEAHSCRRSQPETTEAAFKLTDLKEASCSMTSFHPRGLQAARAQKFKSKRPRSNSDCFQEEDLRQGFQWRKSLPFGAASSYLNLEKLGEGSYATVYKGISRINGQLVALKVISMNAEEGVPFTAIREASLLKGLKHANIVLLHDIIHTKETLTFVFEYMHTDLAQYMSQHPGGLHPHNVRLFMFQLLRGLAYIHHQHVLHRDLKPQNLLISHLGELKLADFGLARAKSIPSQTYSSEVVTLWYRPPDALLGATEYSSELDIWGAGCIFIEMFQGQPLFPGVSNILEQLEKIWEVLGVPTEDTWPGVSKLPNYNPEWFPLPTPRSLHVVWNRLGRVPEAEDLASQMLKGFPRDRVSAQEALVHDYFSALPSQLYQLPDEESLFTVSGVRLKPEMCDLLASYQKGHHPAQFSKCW
Sequence of Tyrosine-protein kinase Fes/Fps (Homo sapiens) (P07332 whole entry): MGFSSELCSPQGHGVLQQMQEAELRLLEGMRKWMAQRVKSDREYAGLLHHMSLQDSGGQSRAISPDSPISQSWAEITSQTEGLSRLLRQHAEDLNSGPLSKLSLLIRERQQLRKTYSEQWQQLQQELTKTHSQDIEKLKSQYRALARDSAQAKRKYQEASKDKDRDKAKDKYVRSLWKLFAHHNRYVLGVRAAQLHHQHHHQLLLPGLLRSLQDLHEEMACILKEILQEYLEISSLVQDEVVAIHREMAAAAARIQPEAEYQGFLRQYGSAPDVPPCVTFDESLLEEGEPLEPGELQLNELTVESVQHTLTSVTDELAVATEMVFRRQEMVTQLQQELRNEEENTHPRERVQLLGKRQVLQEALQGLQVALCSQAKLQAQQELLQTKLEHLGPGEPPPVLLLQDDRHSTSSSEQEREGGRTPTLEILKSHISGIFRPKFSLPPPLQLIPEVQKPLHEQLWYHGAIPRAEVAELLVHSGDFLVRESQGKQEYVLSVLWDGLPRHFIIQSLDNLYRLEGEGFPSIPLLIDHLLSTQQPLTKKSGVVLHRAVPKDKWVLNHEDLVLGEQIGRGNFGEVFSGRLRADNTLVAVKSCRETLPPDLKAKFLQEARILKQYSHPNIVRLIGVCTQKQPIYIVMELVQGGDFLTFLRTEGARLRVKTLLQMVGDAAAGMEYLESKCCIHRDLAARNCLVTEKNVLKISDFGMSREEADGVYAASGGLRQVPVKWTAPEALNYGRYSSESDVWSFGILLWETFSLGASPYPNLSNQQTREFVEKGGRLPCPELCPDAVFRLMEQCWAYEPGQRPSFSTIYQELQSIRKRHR

Compound CN(C(=O)c1cnn2cccnc12)c1cc2c(cc1N1CCOCC1)C(=O)N(C[C@@H](F)C(C)(C)O)C2 has a dTM [1] of -0.6 K.
For COc1cc(Nc2nc(C)cc(-c3cnn4nc(OC)ccc34)n2)cc(C(F)(F)F)c1, the % of control [2] was 90%.
With N#Cc1cccc(-c2c[nH]c3ncnc(N4CCOCC4)c23)c1 the % of control [3] was 78%, the % of control [4] was 70% and the % of control [5] was 58%. The % of control [6] was 95%.
Compound CNC(=O)Nc1ccc(-c2nc(N3CC4CCC(C3)O4)c3cnn(C4CCC5(CC4)OCCO5)c3n2)cc1 has a % of control [7] of 97%.
In the case of CN(C)CCOc1ccc(-c2nc(-c3ccncc3)c(-c3ccc4c(c3)CC/C4=N\O)[nH]2)cc1, the % of control [8] is reported as 100%.
CCN(CC)CCCCNc1ncc2cc(-c3cc(OC)cc(OC)c3)c(NC(=O)NC(C)(C)C)nc2n1 gave a % of control [9] of 100%.
CN(C)C/C=C/C(=O)Nc1ccc(C(=O)N2CCCC(Nc3ncc(Cl)c(-c4c[nH]c5ccccc45)n3)C2)cc1 (stereo not given) showed a % of control [10] of 38%.
